# Source: patent US12304916B2, “Thienopyridinyl and thiazolopyridinyl compounds useful as IRAK4 inhibitors” (BRISTOL-MYERS SQUIBB COMPANY, priority 2019, dated 2025)
# Tests used:
# [1] = tested on: IL-6 levels in human whole blood stimulated with a TLR2 agonist (lipoteichoic acid); assay: IRAK4 Whole Blood Assay; assay type: cell-based; settings: 10 μg/mL lipoteichoic acid for 5 hours, IL-6 readout
# Method: Human whole blood containing the anti-coagulant ACD-A was plated in 384-well plate (25 μL/well) and incubated with compounds for 60 minutes at 37° C. in a 5% CO2 incubator. The blood was stimulated with a TLR2 agonist, 10 μg/mL final concentration of lipoteichoic acid (Invivogen, San Diego, CA) in 25 μL RPMI (Gibco) for 5 hours in a 5% CO2 incubator. At the end of the incubation, plates were centrifuged at 2300 rpm for 5 minutes. Supernatants were harvested and analyzed for IL-6 levels by Flow Cytometry beads assay (BD Biosciences, San Jose, CA).
# IRAK4 = IRAK4 (Homo sapiens (Human), UniProt Q9NWZ3); assay: IRAK4 Inhibition Assay; assay type: biochemical; settings: ATP 500 μM; IRAK4 0.6 nM; 60 min at room temperature
# Method: The assays were performed in U-bottom 384-well plates. The final assay volume was 30 μL prepared from 15 μL additions of enzyme and substrates (fluoresceinated peptide and ATP) and test compounds in assay buffer (20 mM HEPES pH 7.2, 10 mM MgCl2, 0.015% Brij 35 and 4 mM DTT). The reaction was initiated by the combination of IRAK4 with substrates and test compounds. The reaction mixture was incubated at room temperature for 60 min. and terminated by adding 45 μL of 35 mM EDTA to each sample. The reaction mixture was analyzed on the Caliper LABCHIP® 3000 (Caliper, Hopkinton, MA) by electrophoretic separation of the fluorescent substrate and phosphorylated product. Inhibition data were calculated by comparison to no enzyme control reactions for 100% inhibition and vehicle-only reactions for 0% inhibition. The final concentrations of reagents in the assays are ATP, 500 μM; FL-IPTSPITTTYFFFKKK peptide 1.5 μM; IRAK4, 0.6 nM; and DMSO, 1.6%.
# Chain of IRAK4 (Q9NWZ3 whole entry, species assumed): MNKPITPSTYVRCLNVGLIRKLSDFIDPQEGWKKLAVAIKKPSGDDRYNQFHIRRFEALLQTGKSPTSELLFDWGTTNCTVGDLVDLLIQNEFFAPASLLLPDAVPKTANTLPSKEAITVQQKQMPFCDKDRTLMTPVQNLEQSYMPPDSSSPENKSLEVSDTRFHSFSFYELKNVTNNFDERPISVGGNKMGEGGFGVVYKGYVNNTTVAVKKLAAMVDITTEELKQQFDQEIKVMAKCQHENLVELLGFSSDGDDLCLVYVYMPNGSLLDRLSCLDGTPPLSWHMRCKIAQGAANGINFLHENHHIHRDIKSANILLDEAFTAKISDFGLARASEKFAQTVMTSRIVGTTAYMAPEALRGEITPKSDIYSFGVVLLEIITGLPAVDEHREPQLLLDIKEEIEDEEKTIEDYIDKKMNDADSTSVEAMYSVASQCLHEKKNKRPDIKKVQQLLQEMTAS
EC50 [1] [nM],IC50 (IRAK4) [nM],Structure (SMILES)
> 20000,2.4,"CC(C)Nc1c(C(=O)NC[C@@H](F)C(C)(C)O)cnc2sc(-c3cn[nH]c3)cc12 [Example 21, (R)-N-(2-fluoro-3-hydroxy-3-methylbutyl)-4-(isopropylamino)-2-(1H-pyrazol-4-yl)thieno[2,3-b]pyridine-5-carboxamide]"
4250,4.8,"CC(C)Nc1c(C(=O)NC[C@@H](F)C(C)(C)O)cnc2sc(-c3ccncc3)cc12 [Example 23, (R)-N-(2-fluoro-3-hydroxy-3-methylbutyl)-4-(isopropylamino)-2-(pyridin-4-yl) thieno[2,3-b]pyridine-5-carboxamide]"
> 20000,18.9,"CC(C)Nc1c(C(=O)NC[C@@H](F)C(C)(C)O)cnc2sc(-c3ccc(C#N)nc3)cc12 [Example 25, (R)-2-(6-cyanopyridin-3-yl)-N-(2-fluoro-3-hydroxy-3-methylbutyl)-4-(isopropylamino) thieno[2,3-b]pyridine-5-carboxamide]"
2400,12.9,"CC(C)CCNC(=O)c1cnc2sc(-c3ccncc3)cc2c1NC(C)C [Example 29, N-isopentyl-4-(isopropylamino)-2-(pyridin-4-yl)thieno[2,3-b]pyridine-5-carboxamide]"
> 20000,7.5,"CC(C)CCNC(=O)c1cnc2sc(-c3cncs3)cc2c1NC(C)C [Example 30, N-isopentyl-4-(isopropylamino)-2-(thiazol-5-yl)thieno[2,3-b]pyridine-5-carboxamide]"
,1880,"C[C@H](CCO)NC(=O)c1cnc2sc(-c3cncs3)cc2c1Nc1cnn(CC(F)F)c1 [Example 48, (R)-4-((1-(2,2-difluoroethyl)-1H-pyrazol-4-yl)amino)-N-(4-hydroxybutan-2-yl)-2-(thiazol-5-yl)thieno[2,3-b]pyridine-5-carboxamide]"
,408,"O=C(N[C@H]1CC[C@H](O)CC1)c1cnc2sc(-c3cncs3)cc2c1Nc1cnn(CC(F)F)c1 [Example 49, 4-((1-(2,2-difluoroethyl)-1H-pyrazol-4-yl)amino)-N-((1s,4s)-4-hydroxycyclohexyl)-2-(thiazol-5-yl)thieno[2,3-b]pyridine-5-carboxamide]"
,53.5,"COc1ncc(-c2cc3c(NC(C)C)c(C(=O)NC[C@@H](F)C(C)(C)O)cnc3s2)s1 [Example 58, (R)-N-(2-fluoro-3-hydroxy-3-methylbutyl)-4-(isopropylamino)-2-(2-methoxythiazol-5-yl)thieno[2,3-b]pyridine-5-carboxamide]"
,35.1,"CC(C)Nc1c(C(=O)NC[C@@H](F)C(C)(C)O)cnc2sc(-c3cscn3)cc12 [Example 62, (R)-N-(2-fluoro-3-hydroxy-3-methylbutyl)-4-(isopropylamino)-2-(thiazol-4-yl)thieno[2,3-b]pyridine-5-carboxamide]"
,8.5,"CC(C)Nc1c(C(=O)NC[C@@H](F)C(C)(C)O)cnc2sc(-c3ccc(C#N)nc3)cc12 [Example 64, (R)-2-(6-cyanopyridin-3-yl)-N-(2-fluoro-3-hydroxy-3-methylbutyl)-4-(isopropylamino)thieno[2,3-b]pyridine-5-carboxamide]"
,18.6,"CC(C)Nc1c(C(=O)NC[C@@H](F)C(C)(C)O)cnc2sc(-c3cncc(C#N)c3)cc12 [Example 65, (R)-2-(5-cyanopyridin-3-yl)-N-(2-fluoro-3-hydroxy-3-methylbutyl)-4-(isopropylamino)thieno[2,3-b]pyridine-5-carboxamide]"
,37.1,"CC(=O)N1CCC(NC(=O)c2cnc3sc(-c4ccc(=O)[nH]c4)cc3c2NC(C)C)CC1 [Example 66, N-(1-acetylpiperidin-4-yl)-4-(isopropylamino)-2-(6-oxo-1,6-dihydropyridin-3-yl)thieno[2,3-b]pyridine-5-carboxamide]"
,42.8,"CC(C)Nc1c(C(=O)NCCCNS(C)(=O)=O)cnc2sc(-c3ccc(=O)[nH]c3)cc12 [Example 67, 4-(isopropylamino)-N-(3-(methylsulfonamido)propyl)-2-(6-oxo-1,6-dihydropyridin-3-yl)thieno[2,3-b]pyridine-5-carboxamide]"
,289,"CC(C)CCc1nc(-c2cnc3sc(-c4cncs4)cc3c2NC(C)C)n[nH]1 [Example 77, 5-(5-isopentyl-1H-1,2,4-triazol-3-yl)-N-isopropyl-2-(thiazol-5-yl)thieno[2,3-b]pyridin-4-amine]"

# Further lines, the molecule ahead of its results:
Structure (SMILES),EC50 [1] [nM],IC50 (IRAK4) [nM]
"CC(C)Nc1c(C(=O)NC[C@@H](F)C(C)(C)O)cnc2sc(-c3cccnc3)cc12 [Example 22, (R)-N-(2-fluoro-3-hydroxy-3-methylbutyl)-4-(isopropylamino)-2-(pyridin-3-yl)thieno[2,3-b]pyridine-5-carboxamide]",3420,5.3
"CC(C)Nc1c(C(=O)NC[C@@H](F)C(C)(C)O)cnc2sc(-c3cccc(C#N)c3)cc12 [Example 24, (R)-2-(3-cyanophenyl)-N-(2-fluoro-3-hydroxy-3-methylbutyl)-4-(isopropylamino)thieno[2,3-b]pyridine-5-carboxamide]",> 20000,16.8
"CC(C)Nc1c(C(=O)NC[C@@H](F)C(C)(C)O)cnc2sc(-c3cncs3)cc12 [Example 27, (R)-N-(2-fluoro-3-hydroxy-3-methylbutyl)-4-(isopropylamino)-2-(thiazol-5-yl) thieno[2,3-b]pyridine-5-carboxamide]",580,2
"CC(C)Nc1c(C(=O)NCC2(CO)COC2)cnc2sc(-c3cncs3)cc12 [Example 47, N-((3-(hydroxymethyl)oxetan-3-yl)methyl)-4-(isopropylamino)-2-(thiazol-5-yl)thieno[2,3-b]pyridine-5-carboxamide]",,215
"COCCNC(=O)c1cnc2sc(-c3cncs3)cc2c1Nc1cnn(CC(F)F)c1 [Example 51, 4-((1-(2,2-difluoroethyl)-1H-pyrazol-4-yl)amino)-N-(2-methoxyethyl)-2-(thiazol-5-yl)thieno[2,3-b]pyridine-5-carboxamide]",,1230
"CC(C)(O)[C@H](F)CNC(=O)c1cnc2sc(-c3cncs3)cc2c1Nc1cnn(CC(F)F)c1 [Example 52, (R)-4-((1-(2,2-difluoroethyl)-1H-pyrazol-4-yl)amino)-N-(2-fluoro-3-hydroxy-3-methylbutyl)-2-(thiazol-5-yl)thieno[2,3-b]pyridine-5-carboxamide]",,72.8
"O=C(N[C@H]1CC[C@H](O)CC1)c1cnc2sc(-c3cncs3)cc2c1NC1COC1 [Example 54, N-((1s,4s)-4-hydroxycyclohexyl)-4-(oxetan-3-ylamino)-2-(thiazol-5-yl)thieno[2,3-b]pyridine-5-carboxamide]",,193
"O=C(NCc1ncn[nH]1)c1cnc2sc(-c3cncs3)cc2c1NC1COC1 [Example 55, N-((1H-1,2,4-triazol-5-yl)methyl)-4-(oxetan-3-ylamino)-2-(thiazol-5-yl)thieno[2,3-b]pyridine-5-carboxamide]",,200
"CC(C)Nc1c(C(=O)NC2CC(O)C2)cnc2sc(-c3cncs3)cc12 (stereo not shown) [Example 61, N-(3-hydroxycyclobutyl)-4-(isopropylamino)-2-(thiazol-5-yl) thieno[2,3-b]pyridine-5-carboxamide]",,97.5
"CC(C)Nc1c(C(=O)NCC2CCS(=O)(=O)C2)cnc2sc(-c3cncs3)cc12 (stereo not shown) [Example 69, N-((1,1-dioxidotetrahydrothiophen-3-yl)methyl)-4-(isopropylamino)-2-(thiazol-5-yl)thieno[2,3-b]pyridine-5-carboxamide]",,72.2
"CC(C)Nc1c(C(=O)NCCC2CCNC2)cnc2sc(-c3ccc(=O)[nH]c3)cc12 (stereo not shown) [Example 70, 4-(isopropylamino)-2-(6-oxo-1,6-dihydropyridin-3-yl)-N-(2-(pyrrolidin-3-yl)ethyl)thieno[2,3-b]pyridine-5-carboxamide]",,22.6
"CC(C)Nc1c(C(=O)NCCN2CCS(=O)(=O)CC2)cnc2sc(-c3ccc(=O)[nH]c3)cc12 [Example 73, N-(2-(1,1-dioxidothiomorpholino)ethyl)-4-(isopropylamino)-2-(6-oxo-1,6-dihydropyridin-3-yl)thieno[2,3-b]pyridine-5-carboxamide]",,24.2
"CC(C)Nc1c(-n2cc(CCC(C)(C)O)nn2)cnc2sc(-c3cccnc3)cc12 [Example 74, 4-(1-(4-(isopropylamino)-2-(pyridin-3-yl)thieno[2,3-b]pyridin-5-yl)-1H-1,2,3-triazol-4-yl)-2-methylbutan-2-ol]",,171
"CC(C)Nc1c(-n2cc(CCC(C)(C)O)nn2)cnc2sc(-c3ccncc3)cc12 [Example 75, 4-(1-(4-(isopropylamino)-2-(pyridin-4-yl)thieno[2,3-b]pyridin-5-yl)-1H-1,2,3-triazol-4-yl)-2-methylbutan-2-ol]",,44.8
"CC(C)CCc1cn(-c2cnc3sc(-c4ccncc4)cc3c2NC(C)C)nn1 [Example 76, 5-(4-isopentyl-1H-1,2,3-triazol-1-yl)-N-isopropyl-2-(pyridin-4-yl)thieno[2,3-b]pyridin-4-amine]",,44.1
